{"source": "patent US8633224B2", "about": "“Hemiasterlin derivatives and uses thereof in the treatment of cancer” (Eisai Co., Ltd., priority 2002, dated 2014)", "data": [{"system": "human cancer cells", "assay": "in vitro and in vivo screening panel (growth inhibition, MDR, cytotoxicity, mouse serum stability, mitotic block reversibility, tumor xenograft)", "details": "properties (i)-(vii) of b364/b365", "experimental": "In certain embodiments, compounds of the invention were tested for in vitro and in vivo activity. Screening methods included standard in vitro cell growth inhibition assays using a panel of human cancer cell lines, a U937 (ATCC accession number CRL 1593) mitotic block reversibility assay, mouse serum stability assay, MDR assay, and cytotoxicity assay. In certain other embodiments, compounds of the invention were evaluated in tumor xenograft in vivo growth inhibition assays.\nCultured human cancer cells (including breast, prostate, colon, lung, leukemia, lymphoma and other) were plated in 96-well plates and grown in the continuous presence of test compounds for 72 or 96 hours. The human cell lines used in this cell growth inhibition assay, include, but are not limited to, the following solid tumor cell lines and non-solid tumor cell lines: DLD-1 colon cancer cells (ATCC accession number CCL-221), DU 145 prostate cancer cells (ATCC accession number HTB-81), H460 non small cell lung cancer, HCT-15 colon cancer cells (ATCC accession number CCL-225), HEL erythroleukemia cells, HL-60 promyelocytic leukemia cells (ATCC accession number CCL-240), K562 leukemia (ATCC accession number CCL-243), LOX melanoma, MDA-MB-435 breast cancer cells, U937 lymphoma cells (ATCC accession number CRL 1593), PANC-1 pancreatic cancer (ATCC accession number CRL-1469), HCC-2998 colon cancer (NCI-Frederick Cancer DCTD Tumor/Cell Line Repository), HCT 116 colon cancer (ATCC accession number CCL-247), HT-29 colon cancer (ATCC accession number HTB-38), LoVo colon cancer (ATCC accession number CCL-229), SW-480 colon cancer (ATCC accession number CCL-228), SW-620 colon cancer (ATCC accession number CCL-227) and COLO-205 colon cancer (ATCC accession number CCL-222). For monolayer cultures, growth was assessed using modifications (Amin et al, Cancer Res., 47: 6040-6045, 1987) of a methylene blue-based microculture assay (Finlay et al, Anal. Biochem., 139: 272-277, 1984). Absorbances at 620 and 405 nm were measured on a Titertek Multiscan MCC/340 plate reader and absorbances at 405 nm were subtracted from absorbances at 620 nm. For suspension cultures, growth was assessed using a 3-(4,5-dimethylthiazol-2-yl)-2,5-diphenyl tetrazolium bromide-based assay (Mosmann et al, J. Immunol. Methods, 65: 55-63, 1983) modified as follows. After 4 days of incubation with test compounds, sterile-filtered 3-(4,5-dimethylthiazol-2-yl)-2,5-diphenyl tetrazolium bromide was added to each well (final concentration, 0.5 mg/ml), and plates were incubated at 37° C. for 4 h. Acid-isopropanol (0.1 N HCl in isopropanol, […]) was then added to each well, and the resultant formazan crystals were dis-solved by gentle mixing. Absorbances at 540 nm were measured on a Titertek Multiscan MCC/340 plate reader.\nBriefly, U937 (ATCC accession number […]) were exposed to various concentration of compounds for 12 hours. The compounds were washed away and the cells were allowed to recover for an additional 10 hours. The cells were collected by centrifugation and fixed overnight in 70% ethanol. The cells were washed in PBS, incubated with RNase A and stained with propidium iodide. Single channel flow cytometry was performed on a Becton Dickinson FACScan; the collection and analysis of data were performed using Becton Dickinson CELLQuest software. Doublet events were eliminated from analyses by proper gating on FL2-W/FL2-A primary plots before histogram analysis of DNA content (measured as FL2-A).\nThis is a modification of the standard cell growth inhibition assays described above. Two cultured human cancer cell lines were used: human uterine sarcoma MDR negative MES-SA cells (ATCC accession number CRL-1976) and human uterine sarcoma MDR-positive MES-SA/Dx5 cells (ATCC accession number CRL-1977). Cells were plated in a 96-well microtiter plates at a density of 7500 cells/well. The cells were incubated in the presence or absence of test compounds for 96 hours.", "values": [{"molecule": "C/C(=C\\[C@H](C(C)C)N(C)C(=O)[C@@H](NC(=O)[C@H]1CCCCN1C(C)C(C)C)C(C)(C)C)C(=O)O", "note": "(single isomer, unassigned) [ER-808662]", "desired properties (growth inhibition IC50, resistance ratio, cytotoxicity in non-dividing normal cells, mouse serum stability, mitotic block reversibility, tumor regression, tumor growth inhibition)": "exhibiting desired properties"}, {"molecule": "CCC(C)N1CCCCC1C(=O)NC(C(=O)N(C)[C@H](/C=C(\\C)C(=O)O)C(C)C)C(C)(C)C", "note": "(stereo in doubt) [ER-808368]", "desired properties (growth inhibition IC50, resistance ratio, cytotoxicity in non-dividing normal cells, mouse serum stability, mitotic block reversibility, tumor regression, tumor growth inhibition)": "exhibiting desired properties"}, {"molecule": "CCC(C)N1CCCCC1C(=O)NC(C(=O)N(C)[C@H](/C=C(\\C)C(=O)O)C(C)C)C(C)C", "note": "(stereo in doubt) [ER-808824]", "desired properties (growth inhibition IC50, resistance ratio, cytotoxicity in non-dividing normal cells, mouse serum stability, mitotic block reversibility, tumor regression, tumor growth inhibition)": "exhibiting desired properties"}, {"molecule": "CN[C@H](C(=O)N[C@H](C(=O)N(C)[C@H](/C=C(\\C)C(=O)N1CCC[C@H]1C(=O)OC)C(C)C)C(C)(C)C)C(C)(C)c1ccccc1", "note": "[ER-805736]", "desired properties (growth inhibition IC50, resistance ratio, cytotoxicity in non-dividing normal cells, mouse serum stability, mitotic block reversibility, tumor regression, tumor growth inhibition)": "exhibiting desired properties"}, {"molecule": "CN[C@H](C(=O)N[C@H](C(=O)N(C)[C@H](/C=C(\\C)C(=O)O)C(C)C)C(C)(C)C)C(C)(C)c1ccc(OCc2ccccc2)cc1", "note": "[ER-805913]", "desired properties (growth inhibition IC50, resistance ratio, cytotoxicity in non-dividing normal cells, mouse serum stability, mitotic block reversibility, tumor regression, tumor growth inhibition)": "exhibiting desired properties"}, {"molecule": "CN[C@H](C(=O)N[C@H](C(=O)N(C)[C@H](CN(C)CC(=O)N1CCC[C@H]1C(=O)OC)C(C)C)C(C)(C)C)C(C)(C)c1ccccc1", "note": "[ER-806925]", "desired properties (growth inhibition IC50, resistance ratio, cytotoxicity in non-dividing normal cells, mouse serum stability, mitotic block reversibility, tumor regression, tumor growth inhibition)": "exhibiting desired properties"}, {"molecule": "C/C(=C\\[C@H](C(C)C)N(C)C(=O)[C@@H](NC(=O)[C@@H]1CCCCN1C)C(C)(C)C)C(=O)O", "note": "[ER-807102]", "desired properties (growth inhibition IC50, resistance ratio, cytotoxicity in non-dividing normal cells, mouse serum stability, mitotic block reversibility, tumor regression, tumor growth inhibition)": "exhibiting desired properties"}, {"molecule": "CN[C@H](C(=O)N[C@H](C(=O)N(C)[C@H](CN1CCC[C@H]1C(=O)N1CCC[C@H]1C(N)=O)C(C)C)C(C)(C)C)C(C)(C)c1ccccc1", "note": "[ER-807328]", "desired properties (growth inhibition IC50, resistance ratio, cytotoxicity in non-dividing normal cells, mouse serum stability, mitotic block reversibility, tumor regression, tumor growth inhibition)": "exhibiting desired properties"}, {"molecule": "CCC(CC)(NC)C(=O)N[C@H](C(=O)N(C)[C@H](/C=C(\\C)C(=O)O)C(C)C)C(C)(C)C", "note": "[ER-807850]", "desired properties (growth inhibition IC50, resistance ratio, cytotoxicity in non-dividing normal cells, mouse serum stability, mitotic block reversibility, tumor regression, tumor growth inhibition)": "exhibiting desired properties"}, {"molecule": "CC(C)OC(=O)[C@@H]1CCCN1C(=O)[C@@H]1CCCN1C[C@H](C(C)C)N(C)C(=O)[C@@H](NC(=O)[C@H]1CCCCN1C)C(C)(C)C", "note": "[ER-807904]", "desired properties (growth inhibition IC50, resistance ratio, cytotoxicity in non-dividing normal cells, mouse serum stability, mitotic block reversibility, tumor regression, tumor growth inhibition)": "exhibiting desired properties"}, {"molecule": "C/C(=C\\[C@H](C(C)C)N(C)C(=O)[C@@H](NC(=O)[C@H]1CCCCN1C(C)C)C(C)(C)C)C(=O)O", "note": "[ER-807974]", "desired properties (growth inhibition IC50, resistance ratio, cytotoxicity in non-dividing normal cells, mouse serum stability, mitotic block reversibility, tumor regression, tumor growth inhibition)": "exhibiting desired properties"}]}, {"system": "human lung carcinoma, human colon carcinoma and human melanoma", "assay": "not given", "details": "cited from earlier work", "values": [{"molecule": "CN[C@H](C(=O)N[C@H](C(=O)N(C)[C@H](/C=C(\\C)C(=O)O)C(C)C)C(C)(C)C)C(C)(C)c1cn(C)c2ccccc12", "note": "[Hemiasterlin]", "antitumor activity against several cell lines": "exhibited antitumor activity"}]}]}
